Experimental data as given in PubChem BioAssay (NCI).
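96-well plates; 48 h exposure; 5 concentrations. Endpoints by linear interpolation between flanking doses. Not reached: highest tested concentration assigned. Here, GI50 denotes the concentration required for 50% inhibition of growth. TGI is the concentration that stops growth completely.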

What was measured:
Assay in all cases: growth of human tumour cells (NCI), 48 h
UO-31 renal = tested on: UO-31 renal
HCT-15 colon = tested on: HCT-15 colon
NCI-H23 lung = tested on: NCI-H23 lung
UACC-62 melanoma = tested on: UACC-62 melanoma
CCRF-CEM leukemia = tested on: CCRF-CEM leukemia
RXF 393 renal = tested on: RXF 393 renal
MDA-MB-231 breast = tested on: MDA-MB-231 breast
PC-3 prostate = tested on: PC-3 prostate
A498 renal = tested on: A498 renal
HOP-92 NSCLC = tested on: HOP-92 NSCLC
SK-MEL-2 melanoma = tested on: SK-MEL-2 melanoma
HT29 colon = tested on: HT29 colon
UACC-257 melanoma = tested on: UACC-257 melanoma
NCI-H226 lung = tested on: NCI-H226 lung
M14 melanoma = tested on: M14 melanoma
OVCAR-4 ovarian = tested on: OVCAR-4 ovarian
OVCAR-5 ovarian = tested on: OVCAR-5 ovarian
SW-620 colon = tested on: SW-620 colon
SK-MEL-5 melanoma = tested on: SK-MEL-5 melanoma
SNB-19 CNS = tested on: SNB-19 CNS
MOLT-4 leukemia = tested on: MOLT-4 leukemia
HL-60(TB) leukemia = tested on: HL-60(TB) leukemia
TK-10 renal = tested on: TK-10 renal
SF-268 CNS = tested on: SF-268 CNS
A549 NSCLC = tested on: A549 NSCLC
IGROV1 ovarian = tested on: IGROV1 ovarian
NCI/ADR-RES ovarian = tested on: NCI/ADR-RES ovarian
NCI-H522 lung = tested on: NCI-H522 lung
SF-295 CNS = tested on: SF-295 CNS
ACHN renal = tested on: ACHN renal
SN12C renal = tested on: SN12C renal
COLO 205 colon = tested on: COLO 205 colon
NCI-H460 lung = tested on: NCI-H460 lung
BT-549 breast = tested on: BT-549 breast
OVCAR-3 ovarian = tested on: OVCAR-3 ovarian
OVCAR-8 ovarian = tested on: OVCAR-8 ovarian
HCC-2998 colon = tested on: HCC-2998 colon
DU-145 prostate = tested on: DU-145 prostate
SK-MEL-28 melanoma = tested on: SK-MEL-28 melanoma
RPMI-8226 leukemia = tested on: RPMI-8226 leukemia
LOX IMVI melanoma = tested on: LOX IMVI melanoma
K-562 leukemia = tested on: K-562 leukemia
CAKI-1 renal = tested on: CAKI-1 renal
KM12 colon = tested on: KM12 colon
MCF7 breast = tested on: MCF7 breast
EKVX NSCLC = tested on: EKVX NSCLC
SK-OV-3 ovarian = tested on: SK-OV-3 ovarian
HOP-62 NSCLC = tested on: HOP-62 NSCLC
SF-539 CNS = tested on: SF-539 CNS
MALME-3M melanoma = tested on: MALME-3M melanoma
MDA-MB-468 breast = tested on: MDA-MB-468 breast
MDA-MB-435 = tested on: MDA-MB-435

COc1cccc(COc2ccc(/C=C3\Oc4cc(O)ccc4C3=O)cc2)c1
GI50 (UO-31 renal): > 100 µM
TGI (UO-31 renal): > 100 µM
GI50 (HCT-15 colon): > 100 µM
TGI (HCT-15 colon): > 100 µM
GI50 (NCI-H23 lung): > 100 µM
TGI (NCI-H23 lung): > 100 µM
GI50 (UACC-62 melanoma): > 100 µM
TGI (UACC-62 melanoma): > 100 µM
GI50 (CCRF-CEM leukemia): > 100 µM
TGI (CCRF-CEM leukemia): > 100 µM
GI50 (RXF 393 renal): > 100 µM
TGI (RXF 393 renal): > 100 µM
GI50 (MDA-MB-231 breast): > 100 µM
TGI (MDA-MB-231 breast): > 100 µM
GI50 (PC-3 prostate): > 100 µM
TGI (PC-3 prostate): > 100 µM
GI50 (A498 renal): > 100 µM
TGI (A498 renal): > 100 µM
GI50 (HOP-92 NSCLC): 2.62 µM
TGI (HOP-92 NSCLC): > 100 µM
GI50 (SK-MEL-2 melanoma): > 100 µM
TGI (SK-MEL-2 melanoma): > 100 µM
GI50 (HT29 colon): > 100 µM
TGI (HT29 colon): > 100 µM
GI50 (UACC-257 melanoma): > 100 µM
TGI (UACC-257 melanoma): > 100 µM
GI50 (NCI-H226 lung): > 100 µM
TGI (NCI-H226 lung): > 100 µM
GI50 (M14 melanoma): > 100 µM
TGI (M14 melanoma): > 100 µM
GI50 (OVCAR-4 ovarian): 2.94 µM
TGI (OVCAR-4 ovarian): 10.6 µM
GI50 (OVCAR-5 ovarian): > 100 µM
TGI (OVCAR-5 ovarian): > 100 µM
GI50 (SW-620 colon): 23.1 µM
TGI (SW-620 colon): > 100 µM
GI50 (SK-MEL-5 melanoma): > 100 µM
TGI (SK-MEL-5 melanoma): > 100 µM
GI50 (SNB-19 CNS): > 100 µM
TGI (SNB-19 CNS): > 100 µM
GI50 (MOLT-4 leukemia): > 100 µM
TGI (MOLT-4 leukemia): > 100 µM
GI50 (HL-60(TB) leukemia): > 100 µM
TGI (HL-60(TB) leukemia): > 100 µM
GI50 (TK-10 renal): > 100 µM
TGI (TK-10 renal): > 100 µM
GI50 (SF-268 CNS): > 100 µM
TGI (SF-268 CNS): > 100 µM
GI50 (A549 NSCLC): > 100 µM
TGI (A549 NSCLC): > 100 µM
GI50 (IGROV1 ovarian): > 100 µM
TGI (IGROV1 ovarian): > 100 µM
GI50 (NCI/ADR-RES ovarian): > 100 µM
TGI (NCI/ADR-RES ovarian): > 100 µM
GI50 (NCI-H522 lung): > 100 µM
TGI (NCI-H522 lung): > 100 µM
GI50 (SF-295 CNS): > 100 µM
TGI (SF-295 CNS): > 100 µM
GI50 (ACHN renal): 4.97 µM
TGI (ACHN renal): > 100 µM
GI50 (SN12C renal): > 100 µM
TGI (SN12C renal): > 100 µM
GI50 (COLO 205 colon): > 100 µM
TGI (COLO 205 colon): > 100 µM
GI50 (NCI-H460 lung): > 100 µM
TGI (NCI-H460 lung): > 100 µM
GI50 (BT-549 breast): > 100 µM
TGI (BT-549 breast): > 100 µM
GI50 (OVCAR-3 ovarian): > 100 µM
TGI (OVCAR-3 ovarian): > 100 µM
GI50 (OVCAR-8 ovarian): > 100 µM
TGI (OVCAR-8 ovarian): > 100 µM
GI50 (HCC-2998 colon): > 100 µM
TGI (HCC-2998 colon): > 100 µM
GI50 (DU-145 prostate): > 100 µM
TGI (DU-145 prostate): > 100 µM
GI50 (SK-MEL-28 melanoma): > 100 µM
TGI (SK-MEL-28 melanoma): > 100 µM
GI50 (RPMI-8226 leukemia): > 100 µM
TGI (RPMI-8226 leukemia): > 100 µM
GI50 (LOX IMVI melanoma): > 100 µM
TGI (LOX IMVI melanoma): > 100 µM
GI50 (K-562 leukemia): > 100 µM
TGI (K-562 leukemia): > 100 µM
GI50 (CAKI-1 renal): 85.2 µM
TGI (CAKI-1 renal): > 100 µM
GI50 (KM12 colon): > 100 µM
TGI (KM12 colon): > 100 µM
GI50 (MCF7 breast): > 100 µM
TGI (MCF7 breast): > 100 µM
GI50 (EKVX NSCLC): > 100 µM
TGI (EKVX NSCLC): > 100 µM
GI50 (SK-OV-3 ovarian): > 100 µM
TGI (SK-OV-3 ovarian): > 100 µM
GI50 (HOP-62 NSCLC): > 100 µM
TGI (HOP-62 NSCLC): > 100 µM
GI50 (SF-539 CNS): 23.4 µM
TGI (SF-539 CNS): > 100 µM
GI50 (MALME-3M melanoma): > 100 µM
TGI (MALME-3M melanoma): > 100 µM
GI50 (MDA-MB-468 breast): 42.5 µM
TGI (MDA-MB-468 breast): > 100 µM
GI50 (MDA-MB-435): > 100 µM
TGI (MDA-MB-435): > 100 µM
